Laboratory results published in patent US20230346827A1 (priority 2020, published 2023).

System: rats subjected to sTBI
Test: sTBI rats, LMW-DS 1, 5, 15 mg/kg s.c. 30 min post-TBI: HPLC of brain energy metabolites, antioxidants, oxidative/nitrosative stress biomarkers (Example 4)
Assay type: in vivo, rat
Conditions: 1 mg/kg
Protocol: Male Wistar rats (n=160) of 300-350 g body weight were used in this study. They were fed with standard laboratory diet and water ad libitum in a controlled environment.
As the accepted anesthetic mixture, animals received 35 mg/kg b.w. ketamine and 0.25 mg/kg body weight midazolam by intramuscular injection. Diffuse sTBI was induced according to the “weight drop” impact acceleration model set up by Marmarou et al. J. Neurosurg. 1994, 80: 291-300. This model causes diffuse axonal injury and it is able to reproduce the physical and mechanical characteristics of the diffuse TBI in humans.
Severe TBI was induced by dropping a 450 g weight from 2 meters height onto the rat head protected by a helmet (metal disk previously fixed on the skull using dental cement) in order to uniformly distribute the mechanical force to the brain. Rats were placed prone on a bed of specific polyurethane foam inserted in a special container; this foam dissipates the major part of the potential energy (deriving from the mechanical forces) and prevents any rebound of the animal after the impact that could produce spinal damages.
After 2 or 7 days from TBI induction, rats were anesthetized again and then immediately sacrificed. These time points are coincident with the worst biochemical derangement (2 days) or, in the case of a mildly injured brain, with a full metabolic recovery (7 days).
The drug treatment consisted in a subcutaneous injection of 0.5 ml of LMW-DS (ILB®, Tikomed, Viken, Sweden, WO 2016/076780) and administered at 3 different concentrations (1, 5 and 15 mg/kg body weight), according to the schematic protocol described below. Sham-operated animals underwent the same procedure of anesthesia but TBI and were used as the control group.
Rats subjected to sTBI and receiving a single administration of LMW-DS after 30 minutes post-TBI, with sacrifice at 2 days post-TBI. Animals were divided in the following subgroups: • 1. 12 animals subjected to sTBI and treated with 1 mg/kg b.w. LMW-DS • 2. 12 animals subjected to sTBI and treated with 5 mg/kg b.w. LMW-DS • 3. 12 animals subjected to sTBI and treated with 15 mg/kg b.w. LMW-DS
Rats subjected to sTBI and receiving a single administration of LMW-DS after 30 minutes post-TBI, with sacrifice at 7 days post-TBI. Animals were divided in the following subgroups: • 1. 12 animals subjected to sTBI and treated with 1 mg/kg b.w. LMW-DS • 2. 12 animals subjected to sTBI and treated with 5 mg/kg b.w. LMW-DS • 3. 12 animals subjected to sTBI and treated with 15 mg/kg b.w. LMW-DS
Rats (n = 12) subjected to sTBI and receiving repeated administrations of the maximal dose of LMW-DS (15 mg/kg b.w.) after 30 minutes, 3 days and 5 days post-TBI, with sacrifice at 7 days post-TBI. Four additional rats were used for the histo-morphological studies. Total rats in this group: n=16
To minimize metabolite loss, an in vivo craniectomy was performed in all animals during anesthesia. The rat skull was carefully removed, the brain was exposed, sharply cut along the sagittal fissure and the two hemispheres were separated. The hemispheres dedicated to biochemical analyses were freeze-clamped by aluminum tongues pre-cooled in liquid nitrogen and then immersed in liquid nitrogen. The freeze-clamping procedure was introduced to accelerate freezing of the tissue, thus minimizing potential metabolite loss.
Tissue homogenization for metabolite analyses was effected as described below. After the wet weight (w.w.) determination, the frozen hemispheres were placed into 7 ml of ice-cold, nitrogen-saturated, precipitating solution (1:10 w/v) composed by CH3CN + 10 mM KH2PO4, pH 7.40, (3:1; v:v), and the homogenization was performed using an Ultra-Turrax homogenizer set at 24,000 rpm/min (Janke & Kunkel, Staufen, Germany). […]

Substance: sodium salt of dextran sulfate [LMW-DS]
- ADENOSINE (2 d post-sTBI): 68.91 ± 16.50 nmol/g w.w.
- ADP (2 d post-sTBI): 333.90 ± 28.72 nmol/g w.w.
- ADP-Ribose (2 d post-sTBI): 25.69 ± 5.16 nmol/g w.w.
- AMP (2 d post-sTBI): 62.04 ± 7.46 nmol/g w.w.
- ASCORBIC ACID (2 d post-sTBI): 2567.35 ± 147.76 nmol/g w.w.
- ATP (2 d post-sTBI): 1696.96 ± 99.43 nmol/g w.w.
- Acetyl-CoA (2 d post-sTBI): 27.74 ± 3.23 nmol/g w.w.
- CDP choline (2 d post-sTBI): 8.23 ± 1.22 nmol/g w.w.
- CMP (2 d post-sTBI): 29.39 ± 6.00 nmol/g w.w.
- CREATININE (2 d post-sTBI): 17.66 ± 3.29 nmol/g w.w.
- CTP (2 d post-sTBI): 33.01 ± 7.63 nmol/g w.w.
- CYTIDINE (2 d post-sTBI): 13.79 ± 2.49 nmol/g w.w.
- CYTOSINE (2 d post-sTBI): 13.47 ± 1.65 nmol/g w.w.
- CoA-SH (2 d post-sTBI): 9.42 ± 1.04 nmol/g w.w.
- GDP (2 d post-sTBI): 189.85 ± 26.23 nmol/g w.w.
- GDP Glucose (2 d post-sTBI): 65.66 ± 41.61 nmol/g w.w.
- GMP (2 d post-sTBI): 205.06 ± 25.74 nmol/g w.w.
- GSH (2 d post-sTBI): 2337.06 ± 340.81 nmol/g w.w.
- GTP (2 d post-sTBI): 169.98 ± 17.93 nmol/g w.w.
- GUANINE (2 d post-sTBI): 1.62 ± 0.41 nmol/g w.w.
- GUANOSINE (2 d post-sTBI): 16.46 ± 2.73 nmol/g w.w.
- HYPOXANTHINE (2 d post-sTBI): 4.02 ± 0.66 nmol/g w.w.
- IMP (2 d post-sTBI): 45.97 ± 8.65 nmol/g w.w.
- INOSINE (2 d post-sTBI): 113.85 ± 14.84 nmol/g w.w.
- MDA (2 d post-sTBI): 44.00 ± 7.17 nmol/g w.w.
- Malonyl-CoA (2 d post-sTBI): 19.06 ± 4.04 nmol/g w.w.
- NADH (2 d post-sTBI): 9.42 ± 1.38 nmol/g w.w.
- NADPH (2 d post-sTBI): 13.07 ± 1.09 nmol/g w.w.
- NADP^+ (2 d post-sTBI): 11.79 ± 2.70 nmol/g w.w.
- NAD^+ (2 d post-sTBI): 325.87 ± 55.47 nmol/g w.w.
- NO2 (2 d post-sTBI): 158.36 ± 19.08 nmol/g w.w.
- NO3 (2 d post-sTBI): 99.16 ± 21.58 nmol/g w.w.
- UDP (2 d post-sTBI): 83.06 ± 8.52 nmol/g w.w.
- UDP-Gal (2 d post-sTBI): 118.50 ± 9.89 nmol/g w.w.
- UDP-GalNac (2 d post-sTBI): 21.24 ± 3.13 nmol/g w.w.
- UDP-Glc (2 d post-sTBI): 45.14 ± 6.68 nmol/g w.w.
- UDP-GlcNac (2 d post-sTBI): 96.62 ± 8.80 nmol/g w.w.
- UMP (2 d post-sTBI): 148.04 ± 20.45 nmol/g w.w.
- URACIL (2 d post-sTBI): 17.18 ± 3.36 nmol/g w.w.
- URIC ACID (2 d post-sTBI): 52.42 ± 10.75 nmol/g w.w.
- URIDINE (2 d post-sTBI): 79.93 ± 14.07 nmol/g w.w.
- UTP (2 d post-sTBI): 104.07 ± 16.34 nmol/g w.w.
- XANTHINE (2 d post-sTBI): 13.79 ± 1.43 nmol/g w.w.
- β-PSEUDOURIDINE (2 d post-sTBI): 11.64 ± 2.3 nmol/g w.w.
- NAD^+/NADH (2 d post-sTBI, adimensional ratio): 33.91 ± 9.32
- ADENOSINE (7 d post-sTBI): 26.08 ± 19.31 nmol/g w.w.
- ADP (7 d post-sTBI): 286.78 ± 38.19 nmol/g w.w.
- ADP-Ribose (7 d post-sTBI): 7.95 ± 1.99 nmol/g w.w.
- AMP (7 d post-sTBI): 43.13 ± 3.39 nmol/g w.w.
- ASCORBIC ACID (7 d post-sTBI): 2177.22 ± 262.21 nmol/g w.w.
- ATP (7 d post-sTBI): 1792.01 ± 144.16 nmol/g w.w.
- Acetyl-CoA (7 d post-sTBI): 27.05 ± 4.61 nmol/g w.w.
- CDP choline (7 d post-sTBI): 6.26 ± 2.01 nmol/g w.w.
- CMP (7 d post-sTBI): 25.41 ± 10.81 nmol/g w.w.
- CREATININE (7 d post-sTBI): 6.57 ± 1.16 nmol/g w.w.
- CTP (7 d post-sTBI): 81.75 ± 31.55 nmol/g w.w.
- CYTIDINE (7 d post-sTBI): 29.67 ± 10.44 nmol/g w.w.
- CYTOSINE (7 d post-sTBI): 16.03 ± 3.44 nmol/g w.w.
- CoA-SH (7 d post-sTBI): 38.50 ± 4.94 nmol/g w.w.
- GDP (7 d post-sTBI): 121.72 ± 13.91 nmol/g w.w.
- GDP Glucose (7 d post-sTBI): 112.22 ± 13.13 nmol/g w.w.
- GMP (7 d post-sTBI): 113.06 ± 53.51 nmol/g w.w.
- GSH (7 d post-sTBI): 1627.30 ± 214.51 nmol/g w.w.
- GTP (7 d post-sTBI): 438.65 ± 39.88 nmol/g w.w.
- GUANINE (7 d post-sTBI): 6.86 ± 2.92 nmol/g w.w.
- GUANOSINE (7 d post-sTBI): 19.11 ± 3.98 nmol/g w.w.
- HYPOXANTHINE (7 d post-sTBI): 16.97 ± 4.94 nmol/g w.w.
- IMP (7 d post-sTBI): 80.16 ± 20.53 nmol/g w.w.
- INOSINE (7 d post-sTBI): 124.27 ± 13.94 nmol/g w.w.
- MDA (7 d post-sTBI): 32.98 ± 5.44 nmol/g w.w.
- Malonyl-CoA (7 d post-sTBI): 5.43 ± 0.98 nmol/g w.w.
- NADH (7 d post-sTBI): 8.20 ± 1.41 nmol/g w.w.
- NADPH (7 d post-sTBI): 18.91 ± 4.39 nmol/g w.w.
- NADP^+ (7 d post-sTBI): 39.94 ± 14.65 nmol/g w.w.
- NAD^+ (7 d post-sTBI): 268.14 ± 37.97 nmol/g w.w.
- NO2 (7 d post-sTBI): 93.04 ± 20.16 nmol/g w.w.
- NO3 (7 d post-sTBI): 153.62 ± 26.24 nmol/g w.w.
- UDP (7 d post-sTBI): 38.59 ± 5.43 nmol/g w.w.
- UDP-Gal (7 d post-sTBI): 130.20 ± 8.95 nmol/g w.w.
- UDP-GalNac (7 d post-sTBI): 15.85 ± 4.54 nmol/g w.w.
